Legend:
A. baumannii [1] = experiment: MIC/MBC broth microdilution, Example 2; type: cell-based, Acinetobacter baumannii; conditions: Example 2 CS NPs
Method: (§1) Reference bacterial stains were purchased from ATCC. Clinical isolates of carbapenem-resistant bacteria were obtained from National Health Research Institutes (NHRI) and Tri-Service General Hospital (TSGH). MIC is defined as the lowest concentration of antibiotics required to inhibit the growth of bacteria. MBC is defined as the lowest concentration of antibiotics required to eradicate microorganisms. The MICs of CS and the CS NPs were determined using a broth microdilution method. Bacterial suspensions were adjusted to a turbidity of McFarland 0.5±0.05 and cultured overnight with different concentrations of CS or CS NPs. A control group without antimicrobial treatment was prepared as a reference. Following overnight incubation, solution turbidity was determined by visual inspection. Culture wells with no observable turbidity were further sub-cultured for MBC evaluation. Solutions from the clear wells were deposited onto an agar plate and cultured overnight to determine the MBCs.
(§2) To evaluate the antibacterial efficacy of the CS NPs of this study, their MIC and MBC were assessed against 5 reference bacterial strains and 20 clinical isolates of carbapenem-resistant A. baumannii, E. coli, K. pneumoniae, and P. aeruginosa according to the procedures set forth in EXAMPLE 1. Reference bacterial stains were purchased from ATCC. Carbapenem-resistant clinical isolated were obtained from NHRI.

[2] = mouse, in vivo, iv, 4 mg/kg
Method: A group of mice were injected intravenously with sterile PBS through the tail vein as negative control. 24 hours after the last treatment, 0.5 mL of blood was collected from the animals for comprehensive metabolic panel analysis. The data was analyzed by Student's t-test followed by Dunnett's multiple comparison tests using GraphPad Prism (GraphPad Software, San Diego, CA). p values smaller than 0.05 were considered significant.

A. baumannii [3] = experiment: MIC/MBC broth microdilution, Example 1; type: cell-based, Acinetobacter baumannii; conditions: Example 1 CS NPs
Method: (§3) To evaluate antibacterial efficacy of the CS NPs, their minimum inhibitory concentration (MIC) and minimum bactericidal concentration (MBC) were assessed against 5 reference bacterial strains and 39 clinical isolates of carbapenem-resistant A. baumannii, P. aeruginosa, E. coli, and K. pneumoniae.
as §1

[4] = test system: K. pneumoniae NHRI 1 isolate; experiment: Mouse survival model of K. pneumoniae infection; type: in vivo; conditions: neutropenic Balb/c mice, lethal i.p. infection; 5 mg/kg CS or 20 mg/kg CS NPs (50% MTD) 5 hours post-infection
Method: 3 days and 1 day before infection, the mice were injected intraperitoneally with 150 and 100 mg/kg of cyclophosphamide, respectively, to induce neutropenia. K. pneumoniae NHRI 1 isolate was grown in 60 mL Mueller Hinton broth at 150 rpm (orbital shaker, Yihder TS-580) for 2.5 hours at 37° C. to reach the mid-logarithmic phase. The bacteria were then collected at 10,000×g for 10 minutes at 4° C. The bacterial pellet was resuspended in PBS. To induce K. pneumoniae intraperitoneal infection with a lethal bacterial dose, mice were infected with 1.5×10^8 CFU/mouse in […] via intraperitoneal injection. 5 hours post-infection, the infected mice were treated with 5 mg/kg CS (50% MTD), 20 mg/kg CS NPs (50% MTD), or PBS as a control.

E. coli = experiment: MIC/MBC broth microdilution, Example 1; type: cell-based; conditions: Example 1 CS NPs
Method: as §3, §1

P. aeruginosa = experiment: MIC/MBC broth microdilution, Example 2; type: cell-based, Pseudomonas aeruginosa; conditions: Example 2 CS NPs
Method: as §1, §2

CS release by dialysis = type: physicochemical; conditions: 50 k MWCO membrane, 37° C., pH 7.4 and pH 5.0
Method: CS release from the CS NPs was studied using a dialysis tube with 50 k MWCO membrane (Pur-A-Lyzer™ Maxi Dialysis Kit, Sigma-Aldrich) in 0.15 M phosphate buffer (pH 7.4) and in 0.15 M acetate buffer solution (pH 5.0). […] Samples were each placed into a dialysis tube at 37° C. under gentle stirring. At predetermined time points, the samples were collected and analyzed for CS content using HPLC.

[5] = clinical carbapenem-resistant isolate A. baumannii NHRI 1
[6] = clinical carbapenem-resistant isolate A. baumannii NHRI 2
[7] = clinical carbapenem-resistant isolate A. baumannii NHRI 3
[8] = clinical carbapenem-resistant isolate A. baumannii NHRI 4
[9] = clinical carbapenem-resistant isolate A. baumannii NHRI 5
[10] = reference strain A. baumannii 17978
[11] = reference strain A. baumannii 19606
[12] = clinical carbapenem-resistant A. baumannii NHRI 1
[13] = clinical carbapenem-resistant A. baumannii NHRI 2
[14] = clinical carbapenem-resistant A. baumannii NHRI 3
[15] = clinical carbapenem-resistant A. baumannii NHRI 4
[16] = clinical carbapenem-resistant A. baumannii NHRI 5
[17] = reference strain A. baumannii 15151
[18] = clinical carbapenem-resistant E. coli NHRI 1
[19] = clinical carbapenem-resistant E. coli NHRI 2
[20] = clinical carbapenem-resistant E. coli NHRI 3
[21] = clinical carbapenem-resistant E. coli NHRI 4
[22] = clinical carbapenem-resistant E. coli NHRI 5
[23] = clinical carbapenem-resistant E. coli TSGH 2
[24] = clinical carbapenem-resistant E. coli TSGH 4
[25] = clinical carbapenem-resistant E. coli TSGH 6
[26] = clinical carbapenem-resistant E. coli TSGH 8
[27] = clinical carbapenem-resistant E. coli TSGH 10
[28] = clinical carbapenem-resistant E. coli TSGH 14
[29] = clinical carbapenem-resistant E. coli TSGH 20
[30] = clinical carbapenem-resistant E. coli TSGH 21
[31] = clinical carbapenem-resistant isolate P. aeruginosa NHRI 1
[32] = clinical carbapenem-resistant isolate P. aeruginosa NHRI 2
[33] = clinical carbapenem-resistant isolate P. aeruginosa NHRI 3
[34] = clinical carbapenem-resistant isolate P. aeruginosa NHRI 4
[35] = clinical carbapenem-resistant isolate P. aeruginosa NHRI 5
[36] = reference strain P. aeruginosa 27853

colistin [CS]
MBC (A. baumannii [1]; [5]): 2 µg/mL
MIC (A. baumannii [1]; [5]): 1 µg/mL
MBC (A. baumannii [1]; [6]): 2 µg/mL
MIC (A. baumannii [1]; [6]): 2 µg/mL
MBC (A. baumannii [1]; [7]): 2 µg/mL
MIC (A. baumannii [1]; [7]): 1 µg/mL
MBC (A. baumannii [1]; [8]): 4 µg/mL
MIC (A. baumannii [1]; [8]): 1 µg/mL
MBC (A. baumannii [1]; [9]): 2 µg/mL
MIC (A. baumannii [1]; [9]): 1 µg/mL
MBC (A. baumannii [1]; [10]): 2 µg/mL
MIC (A. baumannii [1]; [10]): 2 µg/mL
MBC (A. baumannii [1]; [11]): 4 µg/mL
MIC (A. baumannii [1]; [11]): 2 µg/mL
other parameters in the comprehensive metabolic panel [2]: neither CS nor the CS NPs induced any notable changes
MBC (A. baumannii [3]; [12]): 2 µg/mL
MIC (A. baumannii [3]; [12]): 1 µg/mL
MBC (A. baumannii [3]; [13]): 2 µg/mL
MIC (A. baumannii [3]; [13]): 1 µg/mL
MBC (A. baumannii [3]; [14]): 1 µg/mL
MIC (A. baumannii [3]; [14]): 1 µg/mL
MBC (A. baumannii [3]; [15]): 2 µg/mL
MIC (A. baumannii [3]; [15]): 1 µg/mL
MBC (A. baumannii [3]; [16]): 1 µg/mL
MIC (A. baumannii [3]; [16]): 1 µg/mL
MBC (A. baumannii [3]; [17]): 1 µg/mL
MIC (A. baumannii [3]; [17]): 1 µg/mL
MBC (A. baumannii [3]; [10]): 1 µg/mL
MIC (A. baumannii [3]; [10]): 1 µg/mL
MBC (A. baumannii [3]; [11]): 1 µg/mL
MIC (A. baumannii [3]; [11]): 1 µg/mL
mice survival rate [4]: did not improve survival
MBC (E. coli; [18]): 1 µg/mL
MIC (E. coli; [18]): 1 µg/mL
MBC (E. coli; [19]): 1 µg/mL
MIC (E. coli; [19]): 1 µg/mL
MBC (E. coli; [20]): 1 µg/mL
MIC (E. coli; [20]): 1 µg/mL
MBC (E. coli; [21]): 2 µg/mL
MIC (E. coli; [21]): 1 µg/mL
MBC (E. coli; [22]): 2 µg/mL
MIC (E. coli; [22]): 1 µg/mL
MBC (E. coli; [23]): 1 µg/mL
MIC (E. coli; [23]): 1 µg/mL
MBC (E. coli; [24]): 1 µg/mL
MIC (E. coli; [24]): 1 µg/mL
MBC (E. coli; [25]): 2 µg/mL
MIC (E. coli; [25]): 1 µg/mL
MBC (E. coli; [26]): 2 µg/mL
MIC (E. coli; [26]): 1 µg/mL
MBC (E. coli; [27]): 1 µg/mL
MIC (E. coli; [27]): 1 µg/mL
MBC (E. coli; [28]): 1 µg/mL
MIC (E. coli; [28]): 1 µg/mL
MBC (E. coli; [29]): 1 µg/mL
MIC (E. coli; [29]): 1 µg/mL
MBC (E. coli; [30]): 1 µg/mL
MIC (E. coli; [30]): 1 µg/mL
MBC (E. coli; reference strain E. coli 25922): 2 µg/mL
MIC (E. coli; reference strain E. coli 25922): 1 µg/mL
MBC (P. aeruginosa; [31]): 4 µg/mL
MIC (P. aeruginosa; [31]): 1 µg/mL
MBC (P. aeruginosa; [32]): 4 µg/mL
MIC (P. aeruginosa; [32]): 2 µg/mL
MBC (P. aeruginosa; [33]): 4 µg/mL
MIC (P. aeruginosa; [33]): 1 µg/mL
MBC (P. aeruginosa; [34]): 4 µg/mL
MIC (P. aeruginosa; [34]): 2 µg/mL
MBC (P. aeruginosa; [35]): 4 µg/mL
MIC (P. aeruginosa; [35]): 1 µg/mL
MBC (P. aeruginosa; [36]): 2 µg/mL
MIC (P. aeruginosa; [36]): 1 µg/mL
release profile in dialysis (CS release by dialysis): rapidly dialyzed from the setup
